Values quoted from earlier work, collected in patent US6706282B1, “Controlled delivery of phenoxyethyl-substituted 1,2,4-triazolones” (priority 1998, dated 2004).
Structures can show the parent of a compound that is named as a salt.

Q: What does the source list for `CCc1nn(CCCN2CCN(c3cccc(Cl)c3)CC2)c(=O)n1CCOc1ccccc1` [nefazodone hydrochloride, 2-[3-[4-(3-chlorophenyl)-piperazinyl]propyl]-5-ethyl-4-(2-phenoxyethyl)-2H-1,2,4-triazol-3(4H)-one hydrochloride]?
A: time of peak plasma concentrations after dosing (conventional immediate release formulations): about one; half-life (in vivo): 2 to 4 h
